These results are taken from patent US9468209B2, “Method for eradicating weeds with derivatives of 3-acetyl-5-sec-butyl-4-hydroxy-3-pyrrolin-2-one” (priority 2012, dated 2016).

Assay in all cases: Leaf piece damage test
Assay type in all cases: in vivo
What all share (set-up): key: 4: The leaf completely dead; 3: Two third of the leaf withered; 2: One half of the leaf withered; 1: Only edge of the leaf withered; 0: Not damage at all
Common to all, as to conditions: 50 μg/mL, 4 days

Experiment [1] relates to Malvaceae. As for the experimental part:
(§1) Compounds 7, 14, 15, 16, 40, 45, 48 and 53 were dissolved individually in small amount of methanol, and diluted with distilled water to concentration of 50 μg/mL. Methanol water solution and pure water were used as control. A piece of 5 mm leaf was taken from the second leaf of weed sample and was treated with the solution three times. 5 pieces of the leaf were prepared for each treatment. The damage data were collected 4 days later. The measurement of damage level is described in the Table 9.
(§2) The measurement of the plant damage was calculated by the formula: Damage Index=Σ(damage level×number of plants)×100/4/number of plants in each treatment.

The subject of experiment [2] is Japanese false bindweed (Calystegia hederacea). The method, then:
as §1, §2

Experiment [3] relates to Commelina communis. As for the experimental part: as §1, §2
Experiment [4] deals with Pigweed (Amaranthus spinosus). The method, then:
as §1, §2

For experiment [5], the system named is Acalypha australis. The method, then: as §1, §2
Experiment [6] deals with Chenopodium serotinum. As for the experimental part: as §1, §2
The subject of experiment [7] is Sonchus asper. As for the experimental part:
as §1, §2

In experiment [8] the test system is Youngia japonica. As for the experimental part:
as §1, §2

Experiment [9] deals with Rumex dentatus. As for the experimental part: as §1, §2
For experiment [10], the system named is Cayratia japonica. As for the experimental part: as §1, §2
Experiment [11] concerns Rumex japonicus. The method, then:
as §1, §2

For experiment [12], the system named is Carpesium abrotanoides. The method, then:
as §1, §2

Experiment [13] relates to Trifolium pretense. The method, then: as §1, §2
For experiment [14], the system named is Polygonum hydropiper. As for the experimental part:
as §1, §2

Experiment [15] relates to Mosla scabra. The method, then:
as §1, §2

Experiment [16] has as its system Parthenocissus tricuspidata. The method, then: as §1, §2
Experiment [17] deals with Fimbristylis miliacea. As for the experimental part:
as §1, §2

For experiment [18], the system named is Barbyardgrass Echinochloa crusgalli. The method, then: as §1, §2
Experiment [19] has as its system Crisium setosum. As for the experimental part: as §1, §2
Experiment [20] deals with Commelina bengalensis. The method, then:
as §1, §2

The subject of experiment [21] is Redroot pigweed (Amaramthus retroflexus). As for the experimental part: as §1, §2
Experiment [22] relates to Abrtilon theophrasti. The method, then:
as §1, §2

For `CCCC(Cl)C1NC(=O)C(C(C)=O)=C1O` (stereo not drawn) [Compound 40], the Damage level in [1] was 2; in experiment [2], 3; in experiment [3], 3; in experiment [4], 2; in experiment [5], 3; in experiment [6], 2. Besides, the Damage level is reported as 3 in experiment [7]; 3 in experiment [8]; 2 in experiment [9]; 2 in experiment [10]; 2 in [11]; 3 in experiment [12]. Besides, the Damage level in experiment [13] was determined as 3; in experiment [14] it was 2; in experiment [15] it was 2; in experiment [16] it was 2; in experiment [17], 3; in experiment [18], 4. Moreover, the Damage level in experiment [19], in experiment [20], in experiment [21] and in experiment [22] was 3 each time.
Consider `CCC(C)C1NC(=O)C(C(=O)CCc2cc(Cl)cc(Cl)c2)=C1O` (stereo not drawn) [Compound 48], for which the Damage level came to 2 in experiment [1]; 4 in [2]; 4 in experiment [3]; 3 in experiment [4]; 3 in experiment [5]; 3 in [6]. Also, the Damage level in experiment [7] is 4; in experiment [8], 3; in [9] it was 3; in experiment [10], 3; in [11], 2; in experiment [12] it was 4. The Damage level in [13] was found to be 4; in experiment [14], 3; in experiment [15], 2; in experiment [16], 3; in experiment [17], 3; in experiment [18], 4. The Damage level in experiment [19] stood at 4; in [20], 4; in [21], 2; in experiment [22] it was 3.
`CCCC(C#N)C1NC(=O)C(=C(C)O)C1=O` (stereo not drawn) [Compound 53]: the Damage level in experiment [1] is recorded as 3; in experiment [2], 4; in experiment [3] it was 3; in experiment [4] it was 3; in experiment [5], 2; in [6], 3. Further, the Damage level in experiment [7] turned out to be 3; in experiment [8] it was 4; in experiment [9] it was 2; in [10], 3; in [11], 3; in [12], 2. Moreover, the Damage level in experiment [13] was determined as 4; in [14], 3; in experiment [15], 2; in experiment [16], 3; in [17], 2; in experiment [18], 4. Also, the Damage level worked out at 4 in [19], 3 in experiment [20], 3 in experiment [21] and 3 in [22].
As for `CCCCC1NC(=O)C(C(C)=O)=C1O` (stereo not drawn) [Compound 14], the Damage level in experiment [1] was found to be 2; in experiment [2] it was 3; in experiment [3] it was 2; in experiment [4], 2; in experiment [5], 2; in experiment [6], 2. Further, the Damage level is given as 3 in [7]; 3 in experiment [8]; 2 in [9]; 2 in experiment [10]; 1 in experiment [11]; 2 in [12]. Further, the Damage level in [13] came to 3; in [14], 2; in experiment [15] it was 2; in experiment [16] it was 2; in [17], 2; in experiment [18], 4. The Damage level amounted to 3 in experiment [19], 3 in experiment [20], 2 in [21] and 2 in [22].
Consider `CCC(C)C1NC(=O)C(C(=O)CCF)=C1O` (stereo not drawn) [Compound 44], for which the Damage level in [1] stood at 2; in experiment [2] it was 4; in experiment [3] it was 2; in experiment [4], 3; in experiment [5], 3; in experiment [6] it was 3. Besides, the Damage level in [7], in experiment [8], in experiment [9], in [10], in experiment [11] and in experiment [12] was 3 each time. The Damage level in experiment [13] turned out to be 4; in experiment [14], 3; in experiment [15] it was 2; in experiment [16], 3; in [17] it was 2; in [18], 4. Moreover, the Damage level came to 3 in experiment [19], 3 in [20], 2 in experiment [21] and 2 in experiment [22].
For the compound `CCCCCC1NC(=O)C(C(C)=O)=C1O` (stereo not drawn) [Compound 15], the Damage level in experiment [1] was 2; in experiment [2] it was 3; in [3], 2; in experiment [4], 2; in experiment [5], 2; in experiment [6], 2. Besides, the Damage level in experiment [7] stood at 3; in experiment [8], 3; in [9] it was 2; in experiment [10], 2; in experiment [11], 2; in experiment [12], 2. Moreover, the Damage level in [13] was determined as 3; in experiment [14], 2; in experiment [15], 2; in experiment [16] it was 3; in experiment [17], 2; in experiment [18] it was 4. Further, the Damage level turned out to be 3 in [19], 3 in experiment [20], 2 in experiment [21] and 2 in [22].
